In US9738610B2, “Indazole derivatives and uses thereof” (Whitehead Institute for Biomedical Research, priority 2012, dated 2017):
Like-named read-outs stand apart in the source and are kept apart here.

Columns and labels:
[1] = PBS stability assay; type: physicochemical; conditions: 48-hour incubation, 23° C.
[2] = tested on: C. albicans CaCi-2; experiment: CaCi-2 growth inhibition in the presence of 8 μg/ml fluconazole (Alamar Blue); type: cell-based, Candida albicans; conditions: Candida albicans
[3] = tested on: Hsp90; experiment: Hsp90 binning reporter assay; type: cell-based; conditions: Saccharomyces cerevisiae, read-out: Hsp90 pathway inhibition IC50
Procedure: Corning white, 384-well plates were obtained from Corning (Catalog No. 8867BC; Lot No. 22609019). Tropix Gal-Screen was obtained from Applied Biosystems (Catalog No. T2359; Lot No. 0903044).
SD Growth Media was obtained from MP Biomedical (Catalog No. 4027-012; Lot No. 119458). Complete Supplement minus adenine was obtained from Sunrise Science (Catalog No. 1029-100; Lot No. 070409). Deoxycorticosterone (DOC) steroid was obtained from Sigma. To prepare the assay media, 100 ml (20% (w/v) dextrose and 780 mg Complete Supplement) was added to 100 ml SD Growth Media. Water was added to a final volume of 1 liter, and the solution was filter sterilized.
For DOC media, 1 ml DOC was added to 100 ml SD-ADE media.
The following test strain was used in this study: Saccharomyces cerevisiae W303 reporter strain (ATCC 201238). […]
The OD 600 of 1 ml of culture in a cuvette was read using a standard optical density reader with growth medium as a background blank. […] Luminescence of the wells was read on a standard plate reader as a measure of relative fungal growth. Envision (Perkin Elmer) plate reader set-up: Top read; Luminescence filter (560 nm) at 0.1 seconds.
Potential inhibition of the Hsp90-based chaperone machinery was evaluated using yeast reporter assays involving the glucocorticoid hormone receptor and the tyrosine kinase, v-Src. […]

With `COC(=O)Cn1nc(-c2cccc(OC)c2)c2ccccc21` [Compound I-4, methyl 2-(3-(3-methoxyphenyl)-1H-indazol-1-yl)acetate] the “Stability in PBS solution, remaining” value [1] was over 99%, the IC50 ([2]; CACI2, read-out: CaCi-2 IC50 with 8 μg/ml fluconazole) was 440 nM and the IC50 ([2]; CACI2, read-out: CaCi-2 growth inhibition IC50 (nM)) was 440 nM. The IC50 [3] was 4180 nM.
